Data reported in patent US6831083B2, “Pyrazoline derivative or tetrahydropyridazine derivative and medicinal use thereof” (Mitsui Chemicals, Inc., priority 2000, dated 2004).
Marks after values point to notes of the source that are not given here.

Key:
rat GLT-1 = molecular target: T1, rat GLT-1 (Rattus norvegicus, UniProt P31596); assay: Activating action for glia type glutamic acid transporter (GLT-1): [3H]-glutamate intake in COS-7 cells; format: cell-based; settings: test compound 100 μM, treated from 1 hour before [3H]-glutamate (2 μM), 3 min uptake; COS-7 cells expressing rat GLT-1; percentage relative to solvent-treated group
T1 construct: expressed in transfected cells; host or cells: COS-7 cells
Method: Test Example 1 Activating Action for Glia Type Glutamic Acid Transporter (GLT-1)
Activating action for GLT-1 was evaluated by a test using COS-7 cells into which rat GLT-1 had been introduced. To COS-7 cells capable of expressing GLT-1 was added a [^3H]-glutamate-containing KRH solution (200 μl, final concentration: 2 μM). 3 minutes later, the ^3H amount was measured using a scintillation counter. A test compound (100 μM) was dissolved in the KRH solution and a treatment was conducted from 1 hour before the addition of [^3H]-glutamate. The action of the test compound for intake of glutamic acid was expressed as a percentage relative to the glutamic acid intake ability of solvent-treated group.
Glutamic acid intake (%)=[test compound (dpm)/control (dpm)]×100
This test was conducted based on a method by Shimada et al. [Eur. J. Pharmacol., 386, 263-270 ([…])].

ddy mice = assay: Toxicity test in ddy mice; format: in vivo; settings: 100 mg/kg (i. p.), 24 hours after administration
Method: Test Example 3 Toxicity Test
A test compound was administered into ddy mice to investigate its toxicity. The test compound was intraperitoneally administered in a dosage of 100 mg/kg; the mortality rate of the mice 24 hours after the administration was examined; and the toxicity of the test compound was evaluated from the mortality rate.

[1] = system: rat models of middle cerebral artery obstruction; assay: Action for cerebral infarct caused by middle cerebral artery obstruction in rat; format: in vivo; settings: male SD rats, left MCA obstruction, brain taken 24 hours after obstruction, TTC
Method: Test Example 2 Action for Cerebral Infarct Caused by Middle Cerebral Artery Obstruction in Rat
Preparation of rat models having middle cerebral artery obstruction was conducted according to a method of Tamura et al. [J. Cerebral Blood Flow and Metabolism, 53-60 (1981)]. Specifically, 9 to 10 week-old male SD strain rats were used and their left middle cerebral arteries were obstructed under anesthesia by […] halosen. The compound of Example 5 or 26 was used as a test compound. The compound of Example 5 was intravenously administered in a dosage of 10 mg/kg for 24 hours from right after the obstruction; and the compound of Example 26 was intraperitoneally administered in a dosage of 50 mg/kg right after the obstruction and 6 hours after the obstruction. The brain of each rat was taken out 24 hours after the obstruction of rat middle cerebral artery, was divided into 6 parts, and was dyed with TTC. The section of each dyed part was photographed, and the focus of cerebral infarct was measured using an image analyzer. The rats in control group were as well subjected to middle cerebral artery obstruction.

T1 sequence (P31596 whole entry): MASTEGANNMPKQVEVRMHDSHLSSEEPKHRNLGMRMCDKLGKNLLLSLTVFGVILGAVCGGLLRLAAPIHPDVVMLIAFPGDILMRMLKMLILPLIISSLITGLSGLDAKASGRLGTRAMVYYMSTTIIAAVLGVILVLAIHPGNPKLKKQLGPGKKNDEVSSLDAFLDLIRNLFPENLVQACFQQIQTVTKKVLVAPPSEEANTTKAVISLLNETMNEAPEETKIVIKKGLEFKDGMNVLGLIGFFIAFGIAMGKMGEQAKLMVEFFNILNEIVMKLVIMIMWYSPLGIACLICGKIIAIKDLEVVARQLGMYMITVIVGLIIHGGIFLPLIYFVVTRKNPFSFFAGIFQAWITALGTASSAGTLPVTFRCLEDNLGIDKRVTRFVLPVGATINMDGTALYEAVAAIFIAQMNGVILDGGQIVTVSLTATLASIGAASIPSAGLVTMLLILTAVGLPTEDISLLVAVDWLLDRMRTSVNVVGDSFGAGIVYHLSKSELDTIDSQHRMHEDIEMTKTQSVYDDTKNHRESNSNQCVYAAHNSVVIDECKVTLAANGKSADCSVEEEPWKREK

O=C(c1cccnc1)N1CCCC(c2ccccc2)=N1 [Example 1, 1-nicotinoyl-3-phenyl-1,4,5,6-tetrahydropyridazine]
Glutamic acid intake (%) (rat GLT-1): 136%

O=C(c1cnccn1)N1CCCC(c2ccccc2)=N1 [Example 2, 1-(2-Pyrazinoyl)-3-phenyl-1,4,5,6-tetrahydropyridazine]
Glutamic acid intake (%) (rat GLT-1): 126%

CS(=O)(=O)O.O=C(c1cccnc1)N1CCC(c2ccccc2)=N1 [Example 5, 1-nicotinoyl-3-phenyl-2-pyrazoline methanesulfonate]
Glutamic acid intake (%) (rat GLT-1): 145% | Mortality rate (%) (ddy mice): 0% | Focus of cerebral infarct (mm^3) ([1]; 10 mg/kg intravenously for 24 hours from right after obstruction, control group 224.4 ± 71.5): 131.7 ± 51.6** mm^3

O=C(c1cccnc1)N1CCC(c2ccc(F)cc2)=N1 [Example 7, 1-nicotinoyl-3-(4-fluorophenyl)-2-pyrazoline]
Glutamic acid intake (%) (rat GLT-1): 143% | melting point: 128 to 130 °C

O=C(c1cccnc1)N1CCC(c2ccccc2F)=N1 [Example 8, 1-nicotinoyl-3-(2-fluorophenyl)-2-pyrazoline]
Glutamic acid intake (%) (rat GLT-1): 134%

O=C(c1cccnc1)N1CCC(c2ccc(Br)cc2)=N1 [Example 9, 1-nicotinoyl-3-(4-bromophenyl)-2-pyrazoline]
Glutamic acid intake (%) (rat GLT-1): 138%

O=C(c1cccnc1)N1CCC(c2ccc(Cl)cc2)=N1 [Example 10, 1-nicotinoyl-3-(4-chlorophenyl)-2-pyrazoline]
Glutamic acid intake (%) (rat GLT-1): 135%

O=C(c1cccnc1)N1CCC(c2cccc(Cl)c2)=N1 [Example 11, 1-nicotinoyl-3-(3-chlorophenyl)-2-pyrazoline]
Glutamic acid intake (%) (rat GLT-1): 140% | melting point: 124 to 126 °C

O=C(c1cccnc1)N1CCC(c2ccccc2Cl)=N1 [Example 12, 1-nicotinoyl-3-(2-chlorophenyl)-2-pyrazoline]
Glutamic acid intake (%) (rat GLT-1): 134%

COc1ccc(C2=NN(C(=O)c3cccnc3)CC2)cc1 [Example 13, 1-nicotinoyl-3-(4-methoxyphenyl)-2-pyrazoline]
Glutamic acid intake (%) (rat GLT-1): 129% | melting point: 132 to 134 °C

COc1ccccc1C1=NN(C(=O)c2cccnc2)CC1 [Example 14, 1-nicotinoyl-3-(2-methoxyphenyl)-2-pyrazoline]
Glutamic acid intake (%) (rat GLT-1): 124% | melting point: 130 to 132 °C

COc1ccccc1C1=NN(C(=O)c2cccnc2)CC1C (stereo not shown) [Example 15, 1-nicotinoyl-3-(2-methoxyphenyl)-4-methyl-2-pyrazoline]
Glutamic acid intake (%) (rat GLT-1): 134% | melting point: 124 to 125 °C

COc1ccc(C2=NN(C(=O)c3cccnc3)CC2)c(OC)c1 [Example 16, 1-nicotinoyl-3-(2,4-dimethoxyphenyl)-2-pyrazoline]
Glutamic acid intake (%) (rat GLT-1): 126% | melting point: 112 to 113 °C

CCOc1ccc(C2=NN(C(=O)c3cccnc3)CC2)cc1 [Example 17, 1-nicotinoyl-3-(4-ethoxyphenyl)-2-pyrazoline]
Glutamic acid intake (%) (rat GLT-1): 129% | melting point: 124 to 125 °C

CCOc1ccccc1C1=NN(C(=O)c2cccnc2)CC1 [Example 18, 1-nicotinoyl-3-(2-ethoxyphenyl)-2-pyrazoline]
melting point: 155 to 157 °C

Cc1ccc(C2=NN(C(=O)c3cccnc3)CC2)cc1 [Example 19, 1-nicotinoyl-3-(4-methylphenyl)-2-pyrazoline]
Glutamic acid intake (%) (rat GLT-1): 131% | melting point: 100 to 102 °C

Cc1cccc(C2=NN(C(=O)c3cccnc3)CC2)c1 [Example 20, 1-nicotinoyl-3-(3-methylphenyl)-2-pyrazoline]
Glutamic acid intake (%) (rat GLT-1): 134% | melting point: 99 to 100 °C

Cc1ccccc1C1=NN(C(=O)c2cccnc2)CC1 [Example 21, 1-nicotinoyl-3-(2-methylphenyl)-2-pyrazoline]
Glutamic acid intake (%) (rat GLT-1): 129%

Cc1ccc(C2=NN(C(=O)c3cccnc3)CC2)c(C)c1 [Example 22, 1-nicotinoyl-3-(2,4-dimethylphenyl)-2-pyrazoline]
melting point: 102 to 104 °C

O=C(c1cccnc1)N1CCC(c2ccccc2C(F)(F)F)=N1 [Example 23, 1-nicotinoyl-3-(2-trifluoromethylphenyl)-2-pyrazoline]
Glutamic acid intake (%) (rat GLT-1): 128%

O=C(c1cccnc1)N1CCC(c2ccc([N+](=O)[O-])cc2)=N1 [Example 24, 1-nicotinoyl-3-(4-nitrophenyl)-2-pyrazoline]
Glutamic acid intake (%) (rat GLT-1): 130% | melting point: 175 to 177 °C

O=C(c1cccnc1)N1CCC(c2ccccc2[N+](=O)[O-])=N1 [Example 25, 1-nicotinoyl-3-(2-nitrophenyl)-2-pyrazoline]
melting point: 123 to 125 °C

O=C(c1cccnc1)N1CC2COc3ccccc3C2=N1 (stereo not shown) [Example 26, 2-nicotinoyl-3,3a-dihydro-2H,4H-[1]-benzopyrano[4,3-c]pyrazole]
Glutamic acid intake (%) (rat GLT-1): 131% | Mortality rate (%) (ddy mice): 0% | Focus of cerebral infarct (mm^3) ([1]; 50 mg/kg intraperitoneally right after and 6 hours after obstruction, control group 188.0 ± 54.8): 135.9 ± 30.5* mm^3

O=C(c1cccnc1)N1CC2COc3cc(Cl)ccc3C2=N1 (stereo not shown) [Example 31, 2-nicotinoyl-7-chloro-3,3a-dihydro-2H,4H-[1]-benzopyrano[4,3-c]pyrazole]
Glutamic acid intake (%) (rat GLT-1): 125%

O=C(c1cnccn1)N1CC2CSc3ccccc3C2=N1 (stereo not shown) [Example 40, 2-(2-pyrazinoyl)-3,3a-dihydro-2H,4H-[1]-benzothiopyrano-[4,3-c]pyrazole]
melting point: 190 to 192 °C

O=C(c1cnccn1)N1CC2CS(=O)(=O)c3ccccc3C2=N1 (stereo not shown) [Example 42, 2-(2-pyrazinoyl)-3,3a-dihydro-2H,4H-[1]-benzothiopyrano-[4,3-c]pyrazole-S-dioxide]
Glutamic acid intake (%) (rat GLT-1): 125%
